Laboratory results as given in US20130123358A1, “Metabolic Benefits to Butyrate as a Chronic Diet Supplement” (priority 2009, published 2013).

Legend:
[1] = system: IRS-1 and Akt phosphorylation; assay: Insulin signaling immunoblot in gastrocnemius muscle after insulin injection; assay type: in vivo, mouse; details: butyrate 5% w/w in HFD 13 weeks, 30 min after insulin 0.75 U/kg
Description: Fresh fat and muscles were collected and frozen in liquid nitrogen. The whole cell lysate protein was extract in lysis buffer with sonication and analyzed in western blot as described elsewhere (16). Antibodies were used in study of myoglobin (sc-25607, Santa Cruz), PGC-1 (sc-13068, Santa Cruz), Tubulin (ab7291, Abcam), myosin (M8421, Sigma), pAMPK (Thr 172, #2531, Cell signaling) and p-p38 (sc-7975, Santa Cruz). To detect multiple signals from one membrane, the membrane was stripped with a stripping buffer. Intensity of the immunoblot signal was quantified using a computer program, ImageJ 1.37v (NIH). The mean values of results from three experiments (6 mice each group) were presented. The antibodies to PGC-1α and UCP-1 were from Dr. Thomas Gettys at Pennington Biomedical Research Center, Baton Rouge, La.
Tail vein blood was used for the glucose assay after 16 hr fasting during the period of HFD feeding. […] The insulin was determined at 16 weeks on HFD in fasting condition with Lincoplex kit (#MADPK-71k-03, Linco Research Inc., St. Charles, Mo.). […] After an overnight fast, blood glucose and insulin were measured and used to determine insulin sensitivity through HOMA IR (IR=fasting insulin […] X fasting glucose mg/dL÷405). […] FIG. 2F illustrates the degree of the blot signal in the panel 2E, by quantifying the signal and normalizing with protein loading. **P<0.001 (n=2).

islet cells = details: isolated rat islet cells; cited from earlier work
[2] = system: C57BL/6J mice on high fat diet; assay: Hyperinsulinemic-euglycemic clamp; assay type: in vivo, mouse; details: 5% butyrate in HFD 4 weeks
Description: Hyperinsulinemic-euglycemic clamps were performed at the Penn State Mouse Metabolic Phenotyping Center. The clamps were conducted in C57BL/6 mice at 12 weeks of age after 4 weeks on HFD with or without butyrate supplement. Following overnight fast (˜15 hour), a 2-hour hyperinsulinemic-euglycemic clamp was conducted in awake mice with a primed (150 mU/kg body weight) and continuous infusion of human regular insulin (Humulin; Eli Lilly, Indianapolis, Ind.) at a rate of 2.5 mU/kg/min to raise plasma insulin within a physiological range (Kim et al., 2004). Blood samples (20 μl) were collected at 20 min intervals for the immediate measurement of plasma glucose concentration, and 20% glucose was infused at variable rates to maintain glucose at basal concentrations. Basal and insulin-stimulated whole body glucose turnover were estimated with a continuous infusion of [3-^3H]glucose (PerkinElmer, Boston, Mass.) for 2 hours prior to the clamps (0.05 μCi/min) and throughout the clamps (0.1 μCi/min), respectively. To estimate insulin-stimulated glucose uptake in individual tissues, 2-deoxy-D-[1-^14C]glucose (2-[^14C]DG) was administered as a bolus (10 μCi) at 75 min after the start of clamps. Blood samples were taken before, during, and at the end of clamps for the measurement of plasma [^3H]glucose, ^3H2O, 2-[^14C]DG concentrations, and/or insulin concentrations. At the end of the clamps, mice were euthanized, and tissues were taken for biochemical and molecular analysis.
Glucose concentrations during clamps were analyzed using […] plasma by a glucose oxidase method on a Beckman Glucose Analyzer 2 (Beckman, Fullerton, Calif.). Plasma insulin concentrations were measured by ELISA using kits from Alpco Diagnostics (Salem, N.H.). Plasma concentrations of [3-^3H]glucose, 2-[^14C]DG, and ^3H2O were determined following deproteinization of plasma samples as previously described. The radioactivity of ^3H in tissue glycogen was determined by digesting tissue samples in KOH and precipitating glycogen with ethanol. For the determination of tissue 2-[^14C]DG-6-P content, tissue samples were homogenized, and the supernatants were subjected to an ion-exchange column to separate 2-[^14C]DG-6-P from 2-[^14C]DG. Rates of basal hepatic glucose production (HGP) and insulin-stimulated whole body glucose turnover were determined as the ratio of the [^3H]glucose infusion rate to the specific activity of plasma glucose at the end of the basal period and during the final 30 min of clamp, respectively (Kim et al., 2004). Insulin-stimulated rate of HGP during clamp was determined by subtracting the glucose infusion rate from whole body glucose turnover. Insulin-stimulated glucose uptake in individual tissues was assessed by determining the tissue content of 2-[^14C]DG-6-P and plasma 2-[^14C]DG profile.
Hyperinsulinemic-euglycemic clamps were performed at the Penn State Mouse Metabolic Phenotyping Center. The clamps were conducted in C57BL/6J mice at 12 weeks of age after 4 weeks on HFD with or without a 5% butyrate supplement. Following overnight fast (˜15 hour), a 2-hour hyperinsulinemic-euglycemic clamp was conducted in awake mice with a primed (150 mU/kg body weight) and continuous infusion of human regular insulin (Humulin; Eli Lilly, Indianapolis, Ind.) at a rate of 2.5 mU/kg/min to raise plasma insulin within a physiological range (38). […]

## CCCC(=O)[O-].[Na+] [sodium butyrate]
[1]
  threonine 308 phosphorylation of Akt: increased
  tyrosine 632 (Y632) phosphorylation of IRS-1: increased
Islet cells
  cell viability (islet cells): decrease
  insulin release in the presence of glucose (islet cells): decrease
[2]; clamp
  insulin sensitivity in the liver (hepatic glucose production): also improved
  insulin-stimulated glucose uptake in brown adipose tissue: improved
  insulin-stimulated glucose uptake in white adipose tissue: improved
[2]; clamp, gastrocnemius
  insulin-stimulated glucose uptake in muscle: improved
[2]; last 40 min of clamps
  glucose infusion rate, increase: 40%
